# Experimental data taken from patent US11065253B2, “Arylquinazolines” (Merck Patent GmbH, priority 2013, dated 2021).
# Tested on: phospho-serine 2056 DNA-PK in HCT116 cells
# Test: DNA-PK phosphorylation at serine 2056 (cellular), ELISA in bleomycin-treated HCT116 cells
# Type: cell-based
# Conditions: Homo sapiens, HCT-116, 6 h, cellular; HCT116 cells, 10 μM bleomycin, six hours; read-out: IC50 pDNA-PK
# Experimental: HCT116 cells were cultivated at 37° C. and 10% CO2 in MEM alpha medium with 10% of foetal calf serum and 2 mM glutamine. The cells were detached from the base of the culture vessels with the aid of trypsin/EDTA, centrifuged off in centrifuge tubes, taken up in fresh medium, and the cell density was determined. 100,000 cells were sown in 1 ml of culture medium per cavity of a 24-well cell culture plate and cultivated overnight. Next day, 10 μM bleomycin (DNA intercalator and inductor of DNA double-strand breaks) and test substances in fresh culture medium were added to the cells, and these were cultivated for a further six hours. […] The 96-well ELISA plates were subsequently treated with a detection antibody (Abcam ab79444: total DNA-PK) and a streptavidin-HRP conjugate. The development of the enzymatic reaction was carried out with the aid of a chemiluminescent reagent, the chemiluminescence was measured with the aid of a Mithras LB940. The signals with the phospho-DNA-PK-specific antibody were standardised to the signal with the antibody against the total protein DNA-PKc. […] The DMSO control was used as blank.
row,IC50 [µM],Compound
1,0.5 to 5,"NC(=O)c1ccc(C(O)c2cc(-c3ncnc4cc(N5CCOCC5)ccc34)c(F)cc2Cl)nn1 (centres unmarked) [Example 62, 6-{[2-Chloro-4-fluoro-5-(7-morpholin-4-yl-quinazolin-4-yl)phenyl]-hydroxymethyl}-pyridazine-3-carboxylic acid amide]"
2,10 to 30,"O=c1[nH]ccnc1C(O)c1ccc(F)c(-c2ncnc3cc(N4CCOCC4)ccc23)c1 (centres unmarked) [Example 5, 3-{[4-Fluoro-3-(7-morpholin-4-yl-quinazolin-4-yl)phenyl]-hydroxymethyl}-1H-pyrazin-2-one]"
3,0.5 to 5,"O=c1ccc(C(O)c2ccc(F)c(-c3ncnc4cc(N5CCOCC5)ccc34)c2)n[nH]1 (centres unmarked) [Example 76, 6-{[4-Fluoro-3-(7-morpholin-4-yl-quinazolin-4-yl)phenyl]-hydroxymethyl}-2H-pyridazin-3-one]"
4,0.5 to 5,"OC(c1cccnn1)c1cc(-c2ncnc3cc(N4CCOCC4)ccc23)c(F)cc1F (centres unmarked) [Example 48, [2,4-Difluoro-5-(7-morpholin-4-yl-quinazolin-4-yl)phenyl]-pyridazin-3-ylmethanol]"
5,< 0.5,"COc1ccc(C(O)c2ccc(F)c(-c3ncnc4cc(N5CCOCC5)ccc34)c2)nn1 (centres unmarked) [Example 74, [4-Fluoro-3-(7-morpholin-4-yl-quinazolin-4-yl)phenyl]-(6-methoxypyridazin-3-yl)methanol]"
6,0.5 to 5,"COc1ccnnc1C(O)c1ccc(F)c(-c2ncnc3cc(N4CCOCC4)ccc23)c1 (centres unmarked) [Example 18, [4-Fluoro-3-(7-morpholin-4-yl-quinazolin-4-yl)phenyl]-(4-methoxy-pyridazin-3-yl)methanol]"

# Same assay, conditions: Homo sapiens, HCT-116, cellular DNA-PK phosphorylation at serine 2056, HCT116 cells; read-out: IC50 pDNA-PK
row,IC50 [µM],Compound
1,< 0.5,"COc1ccc(C(O)c2cc(-c3ncnc4cc(N5CCOCC5)ccc34)ccc2Cl)nn1 (centres unmarked) [Example 458, [2-Chloro-5-(7-morpholin-4-yl-quinazolin-4-yl)-phenyl]-(6-methoxy-pyridazin-3-yl)-methanol]"
2,0.5 to 5,"OC(c1cc(-c2ncnc3cc(N4CCOCC4)ccc23)c(F)cc1F)c1ncnc2ccoc12 (centres unmarked) [Example 444, [2,4-Difluoro-5-(7-morpholin-4-yl-quinazolin-4-yl)-phenyl]furo[3,2-d}-pyrimidin-4-yl-methanol]"
3,0.5 to 5,"CCn1c(C(O)c2ccc(F)c(-c3ncnc4cc(N5CCOCC5)ccc34)c2)cccc1=O (centres unmarked) [Example 398, 1-Ethyl-6-{[4-fluoro-3-(7-morpholin-4-yl-quinazolin-4-yl)-phenyl]hydroxy-methyl}-1H-pyridin-2-one]"
4,5 to 10,"Cn1c(C(O)c2cc(-c3ncnc4cc(N5CCOCC5)ccc34)c(F)cc2Cl)nccc1=O (centres unmarked) [Example 368, 2-{[2-Chloro-4-fluoro-5-(7-morpholin-4-yl-quinazolin-4-yl)-phenyl]hydroxy-methyl}-3-methyl-3H-pyrimidin-4-one]"
5,0.5 to 5,"OC(c1cc(-c2ncnc3cc(N4CCOCC4)ccc23)ccc1F)c1nccn2ccnc12 (centres unmarked) [Example 372, [2-Fluoro-5-(7-morpholin-4-yl-quinazolin-4-yl)-phenyl]imidazo-[1,2-a]pyrazin-8-yl-methanol]"
6,0.5 to 5,"Cn1c(C(O)c2ccc(F)c(-c3ncnc4cc(N5CCOCC5)ccc34)c2)cccc1=O (centres unmarked) [Example 375, 6-{[4-Fluoro-3-(7-morpholin-4-yl-quinazolin-4-yl)-phenyl]hydroxy-methyl}-1-methyl-1H-pyridin-2-one (Ena 2)]"
7,0.5 to 5,"Cn1cnc2c(C(O)c3cc(-c4ncnc5cc(N6CCOCC6)ccc45)c(F)cc3F)ncnc21 (centres unmarked) [Example 421, [2,4-Difluoro-5-(7-morpholin-4-yl-quinazolin-4-yl)-phenyl]-(9-methyl-9H-purin-6-yl)-methanol]"

# Same assay, conditions: Homo sapiens, HCT-116, phospho-serine 2056 DNA-PK, bleomycin-treated HCT116 cells; class symbols A-D; read-out: IC50 pDNA-PK
row,IC50 [µM],Compound
1,10 to 30,"Fc1ccc(C(OC(F)F)c2nccs2)cc1-c1ncnc2cc(N3CCOCC3)ccc12 (centres unmarked) [Example 199, 4-[5-(Difluoro-methoxy-thiazol-2-ylmethyl)-2-fluoro-phenyl]-7-morpholin-4-yl-quinazoline]"
2,10 to 30,"Cc1nc(C(O)c2cnc(F)c(-c3ncnc4cc(N5CCOCC5)ncc34)c2)sc1C (centres unmarked) [Example 196, (4,5-Dimethyl-thiazol-2-yl)-[6-fluoro-5-(7-morpholin-4-yl-pyrido[4,3-d}-pyrimidin-4-yl)-pyridin-3-yl]-methanol]"
3,10 to 30,"Cn1cc(C(O)c2ccc(F)c(-c3ncnc4cc(N5CCOCC5)ccc34)c2)cn1 (centres unmarked) [Example 191, [4-Fluoro-3-(7-morpholin-4-yl-quinazolin-4-yl)-phenyl]-(1-methyl-1H-pyrazol-4-yl)-methanol]"
4,0.5 to 5,"COc1ccc(C(O)c2cc(-c3nc(Cl)nc4cc(N5CCOCC5)ccc34)c(F)cc2Cl)nn1 (centres unmarked) [Example 132, [2-Chloro-5-(2-chloro-7-morpholin-4-yl-quinazolin-4-yl)-4-fluorophenyl]-(6-methoxy-pyridazin-3-yl)-methanol]"

# Same assay, conditions: Homo sapiens, HCT-116, phospho-serine 2056 DNA-PK, bleomycin-treated HCT116 cells; read-out: IC50 pDNA-PK
row,IC50 [µM],Compound
1,0.5 to 5,"Cn1c(C(O)c2ccc(F)c(-c3ncnc4cc(N5CCOCC5)ccc34)c2)nccc1=O (centres unmarked) [Example 360, 2-([4-Fluoro-3-(7-morpholin-4-yl-quinazolin-4-yl)-phenyl]hydroxy-methyl}-3-methyl-3H-pyrimidin-4-one]"
2,10 to 30,"Cc1nccnc1C(C(N)=O)c1ccc(F)c(-c2ncnc3cc(N4CCOCC4)ccc23)c1 (centres unmarked) [Example 327, 2-[4-Fluoro-3-(7-morpholin-4-yl-quinazolin-4-yl)-phenyl]-2-(3-methyl-pyrazin-2-yl)-acetamide]"
3,10 to 30,"Cc1nccnc1C(O)c1ccc(F)c(-c2ncnc3cc(N4CCOCC4)c(F)cc23)c1 (centres unmarked) [Example 283, [4-Fluoro-3-(6-fluoro-7-morpholin-4-yl-quinazolin-4-yl)-phenyl]-(3-methyl-pyrazin-2-yl)-methanol]"
4,5 to 10,"COc1nnccc1C(C(N)=O)c1cc(-c2ncnc3cc(N4CCOCC4)ccc23)c(F)cc1Cl (centres unmarked) [Example 307, 2-[2-Chloro-4-fluoro-5-(7-morpholin-4-yl-quinazolin-4-yl)-phenyl]-2-(3-methoxypyridazin-4-yl)acetamide]"
5,< 0.5,"OC(c1ccc(F)c(-c2ncnc3cc(N4CCOCC4)ccc23)c1)c1nccn2cccc12 (centres unmarked) [Example 356, [4-Fluoro-3-(7-morpholin-4-yl-quinazolin-4-yl)-phenyl]pyrrolo[1,2-a]-pyrazin-1-ylmethanol]"

# Same assay, conditions: cellular DNA-PK phosphorylation at serine 2056, HCT116 cells; read-out: IC50 pDNA-PK
row,Compound,IC50 [µM]
1,"OC(c1cc(-c2ncnc3cc(N4CCOCC4)ccc23)c(F)cc1F)c1nccnc1OC(F)F (centres unmarked) [Example 449, (3-Difluoromethoxy-pyrazin-2-yl)-[2,4-difluoro-5-(7-morpholin-4-yl-quinazolin-4-yl)-phenyl]methanol]",0.5 to 5
2,"OC(c1cc(-c2ncnc3cc(N4CCOCC4)ccc23)c(F)cc1Cl)c1ncnc2ccoc12 (centres unmarked) [Example 452, [2-Chloro-4-fluoro-5-(7-morpholin-4-yl-quinazolin-4-yl)-phenyl]furo[3,2-d}-pyrimidin-4-yl-methanol]",< 0.5
3,"OC(c1cc(-c2ncnc3cc(N4CCOCC4)ccc23)c(F)cc1Cl)c1nccn2ccnc12 (centres unmarked) [Example 397, [2-Chloro-4-fluoro-5-(7-morpholin-4-yl-quinazolin-4-yl)-phenyl]imidazo-[1,2-a]pyrazin-8-yl-methanol]",< 0.5
4,"COc1nccnc1[C@@H](O)c1cc(-c2ncnc3cc(N4CCOCC4)ccc23)c(F)cc1Cl [Example 456, (S)-[2-Chloro-4-fluoro-5-(7-morpholin-4-yl-quinazolin-4-yl)-phenyl]-(3-methoxy-pyrazin-2-yl)-methanol]",< 0.5

# Same assay, conditions: cellular; HCT116 cells, 10 μM bleomycin, six hours; read-out: IC50 pDNA-PK
row,IC50 [µM],Compound
1,< 0.5,COc1nnc(Cl)cc1C(O)c1ccc(F)c(-c2ncnc3cc(N4CCOCC4)ccc23)c1 (centres unmarked) [Example 9]
2,< 0.5,"COc1nccnc1C(O)c1ccc(F)c(-c2ncnc3cc(N4CCOCC4)ccc23)c1 (centres unmarked) [Example 38, [4-Fluoro-3-(7-morpholin-4-yl-quinazolin-4-yl)phenyl]-(3-methoxy-pyrazin-2-yl)methanol]"
3,< 0.5,"OC(c1ccc2nccn2n1)c1cc(-c2ncnc3cc(N4CCOCC4)ccc23)c(F)cc1Cl (centres unmarked) [Example 57, [2-Chloro-4-fluoro-5-(7-morpholin-4-yl-quinazolin-4-yl)phenyl]-imidazo[1,2-b]pyridazin-6-ylmethanol]"

# Same assay, conditions: phospho-serine 2056 DNA-PK, bleomycin-treated HCT116 cells; class symbols A-D; read-out: IC50 pDNA-PK
row,IC50 [µM],Compound
1,0.5 to 5,"OC(c1cc(F)c(F)c(-c2ncnc3cc(N4CCOCC4)ccc23)c1)c1nccs1 (centres unmarked) [Example 179, [3,4-Difluoro-5-(7-morpholin-4-yl-quinazolin-4-yl)-phenyl]thiazol-2-yl-methanol]"

# Same assay, conditions: phospho-serine 2056 DNA-PK, bleomycin-treated HCT116 cells; read-out: IC50 pDNA-PK
row,IC50 [µM],Compound
1,< 0.5,"COc1ccc(C(O)c2cc(-c3ncnc4cc(N5CCOCC5)cc(F)c34)c(F)cc2Cl)nn1 (centres unmarked) [Example 271, [2-Chloro-4-fluoro-5-(5-fluoro-7-morpholin-4-yl-quinazolin-4-yl)-phenyl]-(6-methoxy-pyridazin-3-yl)-methanol (Ena 1)]"
2,< 0.5,"[2H]C1([2H])OC([2H])([2H])C([2H])([2H])N(c2ccc3c(-c4cc(C(O)c5nccnc5OC)c(Cl)cc4F)ncnc3c2)C1([2H])[2H] (centres unmarked) [Example 242, [2-Chloro-4-fluoro-5-[7-(2,2,3,3,5,5,6,6-octadeuterio-morpholin-4-yl)quinazolin-4-yl]phenyl]-(3-methoxypyrazin-2-yl)methanol]"
